Series [1] has as its system Vero. Nature of the series: Cytotoxicity against African green monkey Vero cells assessed as reduction in cell viability at 318.16 uM after 18 hrs by XTT assay relative to control. It is filed as cell-based. Particulars: chlorocebus sabaeus.
Series [2] deals with Candida albicans. Nature of the series: Antifungal activity against Candida albicans ATCC 90028 assessed as planktonic growth inhibition at 0.16 uM after 48 hrs by M27-A3 protocol based method relative to control. It is filed as functional. Particulars: ATCC 90028, 48 h, read-out: GI.
Series [3] deals with Candida albicans. The series can be described thus: Antifungal activity against Candida albicans ATCC 90028 assessed as planktonic growth inhibition at 1.24 uM after 48 hrs by M27-A3 protocol based method relative to control. The series is classed as functional. To be noted: ATCC 90028, 48 h, read-out: GI.
The subject of series [4] is Candida albicans. The series can be described thus: Induction of Candida albicans ATCC 90028 internalization in mouse RAW264.7 cells assessed as reduction in fungus-induced cell damage by measuring live and early apoptotic cells at 39.77 uM after 2 hrs acridine orange/ethidium bromide staining based confocal scanning microscopic analysis. It is filed as functional, organism-based.

For series [5], the system named is Candida albicans. Nature of the series: Antifungal activity against Candida albicans ATCC 90028 assessed as planktonic growth inhibition at 19.88 uM after 48 hrs by M27-A3 protocol based method relative to control. The series is classed as functional. Particulars: ATCC 90028, 48 h, read-out: GI.
Series [6] is described as follows: Selectivity index, ratio of CC50 for African green monkey Vero cells to IC50 for Candida albicans ATCC 90028. Particulars: read-out: Ratio CC50/IC50. The series is classed as toxicity.
In series [7] the test system is Candida albicans. Nature of the series: Antifungal activity against Candida albicans ATCC 90028 assessed as planktonic growth inhibition at 0.31 uM after 48 hrs by M27-A3 protocol based method relative to control. The series is classed as functional. To be noted: ATCC 90028, 48 h, read-out: GI.
Series [8] has as its system Candida albicans. The series can be described thus: Antifungal activity against Candida albicans ATCC 90028 assessed as planktonic growth inhibition at 39.77 uM after 48 hrs by M27-A3 protocol based method relative to control. It is filed as functional. To be noted: ATCC 90028, 48 h, read-out: GI.
The test system of series [9] is Candida albicans. The series can be described thus: Antifungal activity against Candida albicans ATCC 90028 assessed as planktonic growth inhibition at 0.62 uM after 48 hrs by M27-A3 protocol based method relative to control. The series is classed as functional. To be noted: ATCC 90028, 48 h, read-out: GI.
In series [10] the test system is Candida albicans. The series can be described thus: Antifungal activity against Candida albicans ATCC 90028 assessed as planktonic growth inhibition at 2.49 uM after 48 hrs by M27-A3 protocol based method relative to control. It is filed as functional. To be noted: ATCC 90028, 48 h, read-out: GI.
Series [11] relates to Candida albicans. Nature of the series: Antibiofilm activity against Candida albicans ATCC 90028 assessed as inhibition of biofilm formation […] after 24 hrs by XTT assay relative to control. It is filed as functional, organism-based. To be noted: ATCC 90028, 24 h. For orientation: Tetrazolium assays rely on reduction of a dye to a coloured formazan, in cell work by metabolically active cells.

Series [12] concerns Candida albicans. Nature of the series: Antifungal activity against Candida albicans ATCC 90028 assessed as planktonic growth inhibition at 9.94 uM after 48 hrs by M27-A3 protocol based method relative to control. To be noted: ATCC 90028, 48 h, read-out: GI. The series is classed as functional.
Series [13] concerns Candida albicans. The series can be described thus: Antifungal activity against Candida albicans ATCC 90028 assessed as planktonic growth inhibition at 0.08 uM after 48 hrs by M27-A3 protocol based method relative to control. Particulars: ATCC 90028, 48 h, read-out: GI. The series is classed as functional.
In series [14] the test system is Candida albicans. Nature of the series: Fungicidal activity against Candida albicans ATCC 90028 assessed as log reduction in fungal load incubated for 48 hrs followed by replating on sabouraud dextrose agar plate and measured after 48 hrs. It is filed as functional.
The test system of series [15] is Candida albicans. The series can be described thus: Antifungal activity against Candida albicans ATCC 90028 assessed as planktonic growth inhibition at 4.97 uM after 48 hrs by M27-A3 protocol based method relative to control. The series is classed as functional. To be noted: ATCC 90028, 48 h, read-out: GI.
For series [16], the system named is Candida albicans. The series can be described thus: Antifungal activity against Candida albicans ATCC 90028 assessed as planktonic growth inhibition at 1.5 uM after 48 hrs by M27-A3 protocol based method relative to control. It is filed as functional. To be noted: ATCC 90028, 48 h, read-out: GI.
Series [17] is described as follows: Toxicity in Galleria mellonella larvae assessed as movement melanization at 47.9 uM measured after 128 hrs (reference value: 0%).
A short description of series [18]: Toxicity in Galleria mellonella larvae assessed as cocoon formation at 47.9 uM measured after 18 hrs (reference value: 60 +/- 20%).
Series [19] can be described thus: Toxicity in Galleria mellonella larvae assessed as movement melanization at 47.9 uM measured after 48 hrs (reference value: 0%).
Series [20] concerns Candida albicans. Nature of the series: Induction of Candida albicans ATCC 90028 internalization in mouse RAW264.7 cells assessed as reduction in fungus-induced cell damage by measuring live and early apoptotic cells at 47.9 uM after 2 hrs acridine orange/ethidium bromide staining based confocal scanning microscopic analysis. It is filed as functional, organism-based.
Series [21] has as its system Candida albicans. The series can be described thus: Antifungal activity against Candida albicans ATCC 90028 assessed as planktonic growth inhibition at 0.2 uM after 48 hrs by M27-A3 protocol based method relative to control. The series is classed as functional. Particulars: ATCC 90028, 48 h, read-out: GI.
In series [22] the test system is Candida albicans. Nature of the series: Antifungal activity against Candida albicans ATCC 90028 assessed as planktonic growth inhibition at 0.4 uM after 48 hrs by M27-A3 protocol based method relative to control. The series is classed as functional. Particulars: ATCC 90028, 48 h, read-out: GI.
Series [23] in a line: Toxicity in Galleria mellonella larvae assessed as survival rate at 47.9 uM measured after 120 hrs (reference value: 100%).
Series [24] concerns Candida albicans. Nature of the series: Antifungal activity against Candida albicans ATCC 90028 assessed as planktonic growth inhibition at 0.7 uM after 48 hrs by M27-A3 protocol based method relative to control. It is filed as functional. To be noted: ATCC 90028, 48 h, read-out: GI.
Series [25] is described as follows: Toxicity in Galleria mellonella larvae assessed as cocoon formation at 47.9 uM measured after 48 hrs (reference value: 85 +/- 5%).
Series [26] is described as follows: Toxicity in Galleria mellonella larvae assessed as movement melanization at 47.9 uM measured after 18 hrs (reference value: 0%).
Series [27] in a line: Toxicity in Galleria mellonella larvae assessed as cocoon formation at 47.9 uM measured after 48 hrs (reference value: 100 +/- 0%).
The nature of series [28]: Toxicity in Galleria mellonella larvae assessed as survival rate at 47.9 uM measured after 18 hrs (reference value: 100%).
In series [29] the test system is Candida albicans. Nature of the series: Induction of reactive oxygen species generation in Candida albicans ATCC 90028 assessed as ROS level at 47.9 uM after 18 hrs by DCFDA probe based flow cytometry (reference value: 0.3%). The series is classed as functional. Background: Flow cytometry measures light scatter and fluorescence of single cells or particles in a stream.

Series [30] relates to Candida albicans. The series can be described thus: Inhibition of Candida albicans ATCC 90028 cell adhesion to human TR146 cells at reduction in cell adherence at 47.9 uM relative to control. Particulars: ATCC 90028, TR146. It is filed as functional.
Series [31] relates to Vero. The series can be described thus: Cytotoxicity against African green monkey Vero cells assessed as reduction in cell viability at 383.2 uM after 18 hrs by XTT assay relative to control. The series is classed as cell-based. To be noted: chlorocebus sabaeus.
For series [32], the system named is Candida albicans. Nature of the series: Antifungal activity against Candida albicans ATCC 90028 assessed as planktonic growth inhibition at 47.9 uM after 48 hrs by M27-A3 protocol based method relative to control. The series is classed as functional. Particulars: ATCC 90028, 48 h, read-out: GI.
Series [33] has as its system Candida albicans. Nature of the series: Antifungal activity against Candida albicans ATCC 90028 assessed as reduction in cell growth after 48 to 72 hrs by M27-A3 protocol based method. The series is classed as functional.
Series [34] deals with Candida albicans. Nature of the series: Antifungal activity against Candida albicans ATCC 90028 assessed as planktonic growth inhibition at 23.9 uM after 48 hrs by M27-A3 protocol based method relative to control. Particulars: ATCC 90028, 48 h, read-out: GI. The series is classed as functional.
The subject of series [35] is Candida albicans. Nature of the series: Antifungal activity against Candida albicans ATCC 90028 assessed as planktonic growth inhibition at 3 uM after 48 hrs by M27-A3 protocol based method relative to control. It is filed as functional. Particulars: ATCC 90028, 48 h, read-out: GI.
Series [36] concerns Candida albicans. Nature of the series: Antifungal activity against Candida albicans ATCC 90028 assessed as planktonic growth inhibition at 6 uM after 48 hrs by M27-A3 protocol based method relative to control. It is filed as functional. Particulars: ATCC 90028, 48 h, read-out: GI.
Series [37] in a line: Toxicity in Galleria mellonella larvae assessed as survival rate at 47.9 uM measured after 48 hrs (reference value: 100%).
Series [38] concerns Candida albicans. The series can be described thus: Antifungal activity against Candida albicans ATCC 90028 assessed as reduction in cell growth after 48 to 72 hrs in presence of ergosterol by M27-A3 protocol based method. The series is classed as functional.
The subject of series [39] is Candida albicans. Nature of the series: Antifungal activity against Candida albicans ATCC 90028 assessed as planktonic growth inhibition at 12 uM after 48 hrs by M27-A3 protocol based method relative to control. The series is classed as functional. To be noted: ATCC 90028, 48 h, read-out: GI.
Series [40] has as its system Candida albicans. The series can be described thus: Antifungal activity against Candida albicans ATCC 90028 assessed as planktonic growth inhibition at 0.09 uM after 48 hrs by M27-A3 protocol based method relative to control. It is filed as functional. Particulars: ATCC 90028, 48 h, read-out: GI.

Values after ≈ are worked out from the molar mass of the structure shown. Active and inactive are the calls of the source. The rule behind the calls is not given here.

Experimental findings from ChEMBL document CHEMBL4411303, “Synthesis of tetrazole derivatives bearing pyrrolidine scaffold and evaluation of their antifungal activity against Candida albicans” (Eur J Med Chem, 2019) are described below.

What is called IC50 is the concentration that gives 50% inhibition. In general, inhibition refers to the relative decrease from the control value, in per cent. Usually MIC stands for the lowest concentration found to suppress growth.

Take `Clc1ccc(-c2nnn(CCCN3CCCC3c3ccc(Cl)cc3)n2)cc1` (stereo not drawn): in series [1], the Activity is 100%. Also, the inhibition of growth at 0.16 µM in series [2] was 99.5%. In addition, the inhibition of growth at 1.24 µM in series [3] is 99%. The outcome in series [4] was Active. In series [5], the inhibition of growth at 19.88 µM was found to be 99.3%. Moreover, in [6], the selectivity ratio is 2. Besides, the inhibition of growth at 0.31 µM in series [7] amounted to 99.2%. Besides, the inhibition of growth at 39.77 µM in series [8] worked out at 99.6%. Also, in [9], the inhibition of growth at 0.62 µM is 99.5%. In series [10], the inhibition of growth at 2.49 µM amounted to 99.7%. In addition, the IC50 in series [11] turned out to be 79.5 µM. For the same compound, in series [12], the inhibition of growth at 9.94 µM came out at 99.3%. Further, in [13], the inhibition of growth at 0.08 µM is 99.6%. Also, the “log(activity)” value in series [14] is recorded as -1.4. Moreover, in series [15], the inhibition of growth at 4.97 µM is 99.3%.

With `c1ccc(-c2nnn(CCCN3CCCC3c3ccccc3)n2)cc1` (stereo not drawn), the inhibition of growth at 1.5 µM in series [16] worked out at 99.3%. Also, the Activity in series [17] was 0%; in series [18] it was 67%; in series [19] it was 0%; in [25] it was 77%; in [26], 0%; in series [27], 93%. Also, the Activity in series [29] is 12 - 16%; in [31] it was 100%. In addition, the outcome in series [20] was Active. Further, the inhibition of growth at 0.2 µM in series [21] was 99.3%. Also, in series [22], the inhibition of growth at 0.4 µM amounted to 99.3%. For the same compound, the survival at 120 h, 47.9 µM in [23] came to 97%. Besides, the inhibition of growth at 0.7 µM in series [24] was 99.2%. Also, the selectivity ratio in series [6] was determined as 2. Besides, in series [28], the survival at 18 h, 47.9 µM stood at 100%. In series [30], the inhibition at 47.9 µM is > 95%. Moreover, the inhibition of growth at 47.9 µM in [32] is 99.2%. The MIC in series [33] was 11.9 µM (≈ 3.97 µg/mL); in [38], 23.9 µM. Further, the IC50 in series [11] amounted to 23.9 µM. In addition, the inhibition of growth at 23.9 µM in series [34] stood at 99.3%. In addition, in [35], the inhibition of growth at 3 µM was 99.3%. The inhibition of growth at 6 µM in series [36] turned out to be 99.3%. Further, the “log(activity)” value in series [14] is listed as -0.4. Besides, the survival at 48 h, 47.9 µM in series [37] is 100%. The inhibition of growth at 12 µM in series [39] turned out to be 99.4%. In series [40], the inhibition of growth at 0.09 µM turned out to be 99.2%.
